These are literature values, as cited in article PMC5579141.

Each structure is given as a SMILES string.

A short description of the data set: not told.

Consider `CC(=O)CC(=O)c1ccccc1`, for which the “log partition 1,2-dichloroethane / water” value is on record as 3.23 log10, the “log partition benzene / water” value is reported as 3.05 log10, the “log partition bromobenzene / water” value was 3.36 log10 and the “log partition chlorobenzene / water” value was 3.13 log10. Also, the “log partition cyclohexane / water” value is 2.11 log10, the “log partition decane / water” value is listed as 2.00 log10, the “log partition decanol / water” value was 2.38 log10 and the “log partition dibutyl ether / water” value was 2.36 log10. Moreover, the “log partition dichloromethane / water” value is given as 3.48 log10, the “log partition heptane / water” value is 2.03 log10, the “log partition hexanol / water” value was 2.48 log10 and the “log partition m-xylene / water” value was 2.81 log10. In addition, the “log partition nitrobenzene / water” value was 3.19 log10, the “log partition nonane / water” value is 1.97 log10, the “log partition nonanol / water” value is 2.43 log10 and the “log partition octane / water” value was 2.00 log10. Also, the “log partition octanol / water” value was 2.52 log10, the “log partition tetrachloromethane / water” value is recorded as 2.77 log10, the “log partition toluene / water” value is 2.91 log10 and the “log partition trichloromethane / water” value is 3.50 log10.

On to `CC(=O)CC(=O)C(F)(F)F`, for which the “log partition benzene / water” value is 0.15 log10, the “log partition dibutyl ether / water” value is 0.08 log10, the “log partition dichloromethane / water” value is 0.40 log10 and the “log partition dodecane / water” value is −0.76 log10. Further, the “log partition ethylbenzene / water” value was −0.18 log10, the “log partition heptane / water” value is −0.57 log10, the “log partition hexane / water” value is recorded as −0.51 log10 and the “log partition hexanol / water” value is on record as 0.62 log10. For the same molecule, the “log partition nitrobenzene / water” value is recorded as 0.30 log10, the “log partition nonanol / water” value is given as 0.59 log10, the “log partition octane / water” value is −0.62 log10 and the “log partition pentanol / water” value is listed as 0.52 log10. In addition, the “log partition tetrachloromethane / water” value is listed as 0.02 log10, the “log partition toluene / water” value was 0.13 log10 and the “log partition trichloromethane / water” value is 0.33 log10.
